Data from patent publication US8664399B2, “Substituted heterocyclic compounds as ion channel modulators” (Gilead Sciences, Inc., priority 2008, dated 2014).

What was measured:
Type in all cases: cell-based
[1] = biological target: T1, human cardiac sodium channel, hNav1.5 (Homo sapiens, UniProt Q14524); assay: Late INa screening assay (automated whole cell patch clamp, PatchXpress; late current generated with 10 μM Tefluthrin); details: HEK293 cells expressing hNav1.5; for inhibition at 10 µM: 10 μM test compound, read-out: Late Ina % blk (10 μM test cmpd)
T1 construct: host or cells: HEK293
Description: The late sodium current (Late INa) and peak sodium current (Peak INa) assays were performed on an automated electrophysiology platform, PatchXpress 7000A (MDS Analytical Technologies, Sunnyvale, Calif.), which uses the whole cell patch clamp technique to measure currents through the cell membrane of up to 16 cells at a time. The assay uses an HEK293 (human embryonic kidney) cell line heterologously expressing the wild-type human cardiac sodium channel, hNav1.5, purchased from Millipore (Billerica, Mass.). No beta subunits were coexpressed with the Na channel alpha subunit. Cells were maintained with standard tissue culture procedures and stable channel expression was maintained with 400 μg/ml Geneticin in the culture medium. Cells isolated for use on PatchXpress were incubated for 5 minutes in Versene 1X and then for 2 minutes in 0.0125% Trypsin-EDTA (both at 37° C.) to ensure that 80-90% of the cells are single and not part of a cell cluster. Experiments were carried out at 24-27° C.
For both the Late INa and Peak INa assays, series resistance compensation was set to 50% and whole-cell compensation is performed automatically. Currents were low-pass filtered at 10 kHz and digitized at 31.25 kHz. Currents through open sodium channels were automatically recorded and stored in the DataXpress2 database (MDS Analytical Technologies, Sunnyvale, Calif.). Analysis is performed using DataXpress2 analysis software and data are compiled in Excel.
Compound stocks were routinely made in glass vials to 10 mM in dimethyl sulfoxide (DMSO). In some cases, when compounds were not soluble in DMSO, they were made in 100% ethanol. Stocks were sonicated as necessary. The extracellular solution for screening Late INa was composed of: 140 mM NaCl, 4 mM KCl, 1.8 mM CaCl2, 0.75 mM MgCl2, and 5 mM HEPES with pH adjusted to 7.4 using NaOH. The extracellular solution for screening Peak INa was composed of: 20 mM NaCl, 120 mM N-methyl-D glucamine, 4 mM KCl, 1.8 mM CaCl2, 0.75 mM MgCl2, and 5 mM HEPES with pH adjusted to 7.4 using HCl. The intracellular solution used to perfuse the inside of the cells for both the Late INa and Peak INa assays contained: 120 mM CsF, 20 mM CsCl, 5 mM EGTA, 5 mM HEPES and pH adjusted to 7.4 with CsOH. […] The 0Na extracellular solution used at the end of each experiment for the Late INa and Peak INa assays to measure baseline current contained: 140 mM N-methyl-D-glucamine; 4 mM KCl; 1.8 mM CaCl2; 0.75 mM MgCl2; 5 mM HEPES and pH was adjusted to 7.4 with HCl.
For the Late INa assay, sodium channels were activated every 10 seconds (0.1 Hz) by depolarizing the cell membrane to −20 mV for 250 milliseconds (ms) from a holding potential of −120 mV. In response to a −20 mV voltage step, typical Nav1.5 sodium currents activate rapidly to a peak negative current and then inactivate nearly completely within 3-4 ms.
All compounds were tested to determine their activity in blocking the late sodium current. Late INa current was generated by adding 10 μM Tefluthrin (pyrethroid) to the extracellular solution while recording Na currents.

hERG potassium channel = biological target: T2, hERG potassium channel (Homo sapiens, UniProt Q12809); assay: hERG screening assay (PatchXpress automated patch clamp, CHO cell line); details: CHO cells; for hERG Patch Clamp hERG % blk (1 μm test cmpd): 1 μm test compound; for hERG Patch Clamp hERG % blk (10 μm test cmpd): 10 μm test compound
T2 construct: expressed in transfected cells; host or cells: CHO (Chinese Hamster Ovary)
Description: Compounds were screened to test their activity in blocking the hERG potassium channel. The hERG channel is heterologously expressed in a CHO (Chinese Hamster Ovary) cell line. Cells were maintained with standard tissue culture procedures and stable channel expression is maintained with 500 μg/ml G418 in the culture medium. Cells were harvested for testing on the PatchXpress automated patch clamp with Accumax (Innovative Cell Technologies, San Diego, Calif.) to isolate single cells.
The following solutions were used for electrophysiological recordings. The external solution contains: 2 mM CaCl2; 2 mM MgCl2; 4 mM KCl; 150 mM NaCl; 10 mM Glucose; 10 mM HEPES (pH 7.4 with 1M NaOH, osmolarity). The internal solution contained: 140 mM KCl, 10 mM MgCl2, 6 mM EGTA, 5 mM HEPES, 5 mM ATP (pH adjusted to 7.25 with KOH).
hERG channels are activated when the voltage is stepped to +20 mV from the −80 mV holding potential. During a 5 second step at +20 mV, the channels activate and then largely inactivate, so the currents are relatively small. Upon returning to −50 mV from +20 mV, hERG currents transiently become much larger as inactivation is rapidly removed and then the channel closes. The first step to −50 mV for 300 ms is used as a baseline for measuring the peak amplitude during the step to −50 mV after channel activation. The peak current at −50 mV was measured both under control conditions and after addition of compound.
All compounds were prepared as 10 mM DMSO stocks in glass vials. Stock solutions were mixed by vigorous vortexing and sonication for about 2 minutes at room temperature. For testing, compounds were diluted in glass vials using an intermediate dilution step in pure DMSO and then further diluted to working concentrations in external solution. Dilutions were prepared no longer than 20 minutes before use.
After achieving the whole-cell configuration, cells were monitored for 90 seconds to assess stability and washed with external solution for 66 seconds. The voltage protocol described above was then applied to the cells every 12 seconds and throughout the whole procedure. Only cells with stable recording parameters and meeting specified health criteria were allowed to enter the compound addition procedure.
External solution containing 0.1% DMSO (vehicle) was applied to the cells first to establish the control peak current amplitude. After allowing the current to stabilize for 3 to 5 minutes, 1 μM and then 10 μM test compounds was applied. Each compound concentration was added 4 times and cells were kept in test solution until the effect of the compound reaches steady state or for a maximum of 12 minutes. After addition of test compound, a positive control (1 μM Cisapride) was added and must block >95% of the current for the experiment to be considered valid. Washout in the external solution compartment was performed until the recovery of the current reaches steady state. Data were analyzed using DataXpress, Clampfit (Molecular Devices, Inc., Sunnyvale) and Origin 7 (Originlab Corp.)

[2] = biological target: T3, human Nav1.7 (hNav1.7+β1 subunits) channels expressed in HEK293 cells (Homo sapiens, UniProt Q15858); assay: Nav1.7 screening assay (fluorescent dye-based membrane potential assay, veratridine); details: veratridine 50 μmol/L, read-out: IC50 for reduction of Nav1.7 Na+ current
T3 construct: expressed in transfected cells; host or cells: HEK293

T1 sequence (Q14524 whole entry): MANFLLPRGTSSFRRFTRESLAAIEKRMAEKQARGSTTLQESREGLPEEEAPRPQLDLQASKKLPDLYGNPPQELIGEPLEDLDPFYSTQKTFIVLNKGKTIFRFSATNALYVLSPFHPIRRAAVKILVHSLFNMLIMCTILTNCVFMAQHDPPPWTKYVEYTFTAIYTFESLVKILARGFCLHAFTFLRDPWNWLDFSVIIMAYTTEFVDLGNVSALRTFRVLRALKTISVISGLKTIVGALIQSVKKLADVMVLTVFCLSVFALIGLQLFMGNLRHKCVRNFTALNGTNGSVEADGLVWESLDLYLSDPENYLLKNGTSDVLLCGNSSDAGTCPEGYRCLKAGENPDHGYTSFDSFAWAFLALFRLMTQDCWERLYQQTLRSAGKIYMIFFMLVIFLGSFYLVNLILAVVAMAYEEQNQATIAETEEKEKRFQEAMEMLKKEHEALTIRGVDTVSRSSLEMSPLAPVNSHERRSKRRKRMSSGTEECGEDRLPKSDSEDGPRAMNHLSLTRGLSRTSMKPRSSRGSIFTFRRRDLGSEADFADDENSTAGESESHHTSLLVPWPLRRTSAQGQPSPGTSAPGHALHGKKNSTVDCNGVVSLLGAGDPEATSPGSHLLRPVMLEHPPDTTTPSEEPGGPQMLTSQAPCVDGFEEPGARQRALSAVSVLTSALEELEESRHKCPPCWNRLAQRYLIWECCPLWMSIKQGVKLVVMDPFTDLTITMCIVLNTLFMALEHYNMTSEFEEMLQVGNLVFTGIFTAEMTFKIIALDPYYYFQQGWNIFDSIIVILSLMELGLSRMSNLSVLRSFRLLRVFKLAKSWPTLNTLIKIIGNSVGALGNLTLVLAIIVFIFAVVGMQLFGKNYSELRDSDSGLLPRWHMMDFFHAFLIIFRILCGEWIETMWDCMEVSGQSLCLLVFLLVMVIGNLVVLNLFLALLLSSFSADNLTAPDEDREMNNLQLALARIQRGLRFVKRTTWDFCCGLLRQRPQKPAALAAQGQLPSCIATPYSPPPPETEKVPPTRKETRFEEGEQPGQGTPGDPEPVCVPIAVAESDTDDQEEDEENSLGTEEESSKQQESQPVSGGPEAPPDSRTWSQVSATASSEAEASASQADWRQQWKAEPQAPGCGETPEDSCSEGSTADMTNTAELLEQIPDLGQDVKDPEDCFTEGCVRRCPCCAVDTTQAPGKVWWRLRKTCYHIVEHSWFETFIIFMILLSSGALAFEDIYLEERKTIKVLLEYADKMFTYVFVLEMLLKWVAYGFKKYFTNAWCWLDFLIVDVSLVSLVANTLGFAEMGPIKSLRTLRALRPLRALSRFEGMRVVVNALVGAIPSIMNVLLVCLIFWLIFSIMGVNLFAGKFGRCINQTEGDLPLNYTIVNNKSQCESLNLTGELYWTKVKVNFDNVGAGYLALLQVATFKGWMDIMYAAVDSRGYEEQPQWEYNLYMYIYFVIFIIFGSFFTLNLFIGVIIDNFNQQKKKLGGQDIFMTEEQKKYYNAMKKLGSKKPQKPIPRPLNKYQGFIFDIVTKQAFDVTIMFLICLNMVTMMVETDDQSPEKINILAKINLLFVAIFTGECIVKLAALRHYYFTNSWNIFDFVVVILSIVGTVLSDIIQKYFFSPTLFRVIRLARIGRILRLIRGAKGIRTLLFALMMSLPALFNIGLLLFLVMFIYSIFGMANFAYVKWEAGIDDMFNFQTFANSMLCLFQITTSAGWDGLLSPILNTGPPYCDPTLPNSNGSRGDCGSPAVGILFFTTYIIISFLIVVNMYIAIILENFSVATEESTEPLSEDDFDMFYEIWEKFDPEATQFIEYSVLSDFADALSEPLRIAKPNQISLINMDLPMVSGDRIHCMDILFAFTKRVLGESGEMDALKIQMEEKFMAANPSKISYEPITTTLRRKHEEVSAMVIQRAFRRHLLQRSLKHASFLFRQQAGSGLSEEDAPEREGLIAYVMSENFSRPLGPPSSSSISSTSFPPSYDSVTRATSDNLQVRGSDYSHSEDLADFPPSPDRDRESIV
T2 sequence (Q12809 whole entry): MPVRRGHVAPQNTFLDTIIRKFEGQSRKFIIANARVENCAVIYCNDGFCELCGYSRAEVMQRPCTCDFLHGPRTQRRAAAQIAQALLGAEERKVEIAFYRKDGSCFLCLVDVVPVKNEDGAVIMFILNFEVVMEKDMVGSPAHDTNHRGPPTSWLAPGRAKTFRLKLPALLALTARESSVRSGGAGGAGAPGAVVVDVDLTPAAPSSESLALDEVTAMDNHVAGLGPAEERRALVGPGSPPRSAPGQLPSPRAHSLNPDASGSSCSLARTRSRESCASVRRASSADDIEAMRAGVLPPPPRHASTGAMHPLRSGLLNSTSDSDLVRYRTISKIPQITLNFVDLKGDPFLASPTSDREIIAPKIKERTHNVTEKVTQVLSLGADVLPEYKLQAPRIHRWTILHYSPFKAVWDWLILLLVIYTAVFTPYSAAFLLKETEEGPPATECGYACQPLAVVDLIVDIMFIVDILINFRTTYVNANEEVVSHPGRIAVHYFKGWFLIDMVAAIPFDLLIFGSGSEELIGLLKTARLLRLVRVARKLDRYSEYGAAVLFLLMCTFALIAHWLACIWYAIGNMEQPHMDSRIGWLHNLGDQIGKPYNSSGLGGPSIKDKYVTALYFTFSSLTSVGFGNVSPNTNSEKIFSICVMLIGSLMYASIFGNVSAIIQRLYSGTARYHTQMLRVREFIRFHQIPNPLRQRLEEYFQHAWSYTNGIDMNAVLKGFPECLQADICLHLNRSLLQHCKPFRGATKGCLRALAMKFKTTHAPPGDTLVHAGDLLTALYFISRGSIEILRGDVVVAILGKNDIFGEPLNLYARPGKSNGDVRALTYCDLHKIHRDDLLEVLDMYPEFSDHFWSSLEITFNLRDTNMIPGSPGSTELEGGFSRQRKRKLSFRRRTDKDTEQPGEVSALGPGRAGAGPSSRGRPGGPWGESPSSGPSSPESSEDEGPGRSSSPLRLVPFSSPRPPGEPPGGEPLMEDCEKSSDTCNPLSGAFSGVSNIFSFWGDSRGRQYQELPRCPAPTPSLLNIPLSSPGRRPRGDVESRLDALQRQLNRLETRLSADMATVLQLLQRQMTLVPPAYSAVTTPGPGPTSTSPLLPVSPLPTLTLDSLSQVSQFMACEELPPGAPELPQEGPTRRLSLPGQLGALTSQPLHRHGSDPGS

Row | SMILES | inhibition at 10 µM [1] | hERG Patch Clamp hERG % blk (1 μm test cmpd) (hERG potassium channel) | hERG Patch Clamp hERG % blk (10 μm test cmpd) (hERG potassium channel) | IC50 [2] | Late Ina % blk (1 μM test cmpd) ([1]; 1 μM test compound)
1 | Cc1nc2ccc(Cl)cc2c(-c2ccccc2)c1C(=O)OCC1CC1 [PT-016, cyclopropylmethyl 6-chloro-2-methyl-4-phenylquinoline-3-carboxylate] | 59% | 30.5% | 73.0% | 37.5 µM | –
2 | Cc1nc2ccc(Cl)cc2c(-c2ccccc2)c1-c1nnc(Cc2ccc(Cl)cc2)o1 [PT-005, 6-chloro-3-[5-(4-chlorobenzyl)-1,3,4-oxadiazol-2-yl]-2-methyl-4-phenylquinoline] | 43.6% | 10.5% | 32.5% | 0.2 µM | –
3 | Cc1nc2ccccc2c(C)c1C(=O)OCc1ccc(Cl)cc1 [PT-019, 4-chlorobenzyl 2,4-dimethylquinoline-3-carboxylate] | 70.1% | 10.0% | 62.5% | – | 22.5%
4 | CCOC(=O)c1c(CN2C(=O)CCC2=O)nc2ccc(Cl)cc2c1-c1ccccc1 [PT-009, ethyl 6-chloro-2-[(2,5-dioxopyrrolidin-1-yl)methyl]-4-phenylquinoline-3-carboxylate] | 53.3% | 24.0% | 65.5% | – | –
5 | CCOC(=O)c1c(Cn2ccnc2)nc2ccc(Cl)cc2c1-c1ccccc1 [PT-008, ethyl 6-chloro-2-(1H-imidazol-1-ylmethyl)-4-phenylquinoline-3-carboxylate] | 41.1% | 43.0% | 94.5% | – | –
6 | CCOC(=O)c1c(Cn2cnnn2)nc2ccc(Cl)cc2c1-c1ccccc1 [PT-010, ethyl 6-chloro-4-phenyl-2-(1H-tetrazol-1-ylmethyl)quinoline-3-carboxylate] | 41.6% | 18.5% | 66.0% | – | –
